One test addresses C. elegans Slo-1a (Caenorhabditis elegans, UniProt Q95V25). Conditions: pE50 (negative decadic logarithm of EC50), CHO cells expressing C. elegans Slo-1a; voltage sensitive dye, 70 mM KCl.
Test [1] has as its system Nippostrongylus brasiliensis. As to the kind of experiment: Nippostrongylus brasiliensis (NIPOBR) adult worms, acetylcholine esterase readout. As to conditions: read-out: activity (reduction of AChE compared to negative control); for inhibition at 1 µg/mL: at 1 μg/ml (1 ppm); for inhibition at 10 µg/mL: at 10 μg/ml (10 ppm). Here is the method:
In Vitro Assay 3: Nippostrongylus brasiliensis (NIPOBR)
Adult Nippostrongylus brasiliensis were washed with saline buffer containing 100 U/ml penicillin, 0.1 mg/ml streptomycin and 2.5 μg/ml amphotericin B. Test compounds were dissolved in DMSO and worms were incubated in medium in a final concentration of 10 μg/ml (10 ppm) respectively 1 μg/ml (1 ppm). An aliquot of the medium was used to determine the acetylcholine esterase activity in comparison to a negative control. The principle of measuring acetylcholine esterase as readout for anthelmintic activity was described in Rapson et al (1986) and Rapson et al (1987).

A further test relates to Dirofilaria immitis. As to the kind of experiment: Dirofilaria immitis (DIROIM L4) larval motility. As to conditions: 72 h, read-out: EC50 (reduction of motility).
For another test, the target named is D. immitis Slo-1 (Dirofilaria immitis, UniProt I0DFK5). As to the kind of experiment: D. immitis Slo-1, action at a recombinant CHO cell line (membrane potential, FLIPR). In kind it is cell-based.
Test [2] concerns Dirofilaria immitis microfilariae. As to the kind of experiment: Dirofilaria immitis microfilariae (DIROIM L1) motility. As to conditions: 72 h, read-out: EC50 (reduction of motility).

Chain of D. immitis Slo-1 (I0DFK5 1-1119): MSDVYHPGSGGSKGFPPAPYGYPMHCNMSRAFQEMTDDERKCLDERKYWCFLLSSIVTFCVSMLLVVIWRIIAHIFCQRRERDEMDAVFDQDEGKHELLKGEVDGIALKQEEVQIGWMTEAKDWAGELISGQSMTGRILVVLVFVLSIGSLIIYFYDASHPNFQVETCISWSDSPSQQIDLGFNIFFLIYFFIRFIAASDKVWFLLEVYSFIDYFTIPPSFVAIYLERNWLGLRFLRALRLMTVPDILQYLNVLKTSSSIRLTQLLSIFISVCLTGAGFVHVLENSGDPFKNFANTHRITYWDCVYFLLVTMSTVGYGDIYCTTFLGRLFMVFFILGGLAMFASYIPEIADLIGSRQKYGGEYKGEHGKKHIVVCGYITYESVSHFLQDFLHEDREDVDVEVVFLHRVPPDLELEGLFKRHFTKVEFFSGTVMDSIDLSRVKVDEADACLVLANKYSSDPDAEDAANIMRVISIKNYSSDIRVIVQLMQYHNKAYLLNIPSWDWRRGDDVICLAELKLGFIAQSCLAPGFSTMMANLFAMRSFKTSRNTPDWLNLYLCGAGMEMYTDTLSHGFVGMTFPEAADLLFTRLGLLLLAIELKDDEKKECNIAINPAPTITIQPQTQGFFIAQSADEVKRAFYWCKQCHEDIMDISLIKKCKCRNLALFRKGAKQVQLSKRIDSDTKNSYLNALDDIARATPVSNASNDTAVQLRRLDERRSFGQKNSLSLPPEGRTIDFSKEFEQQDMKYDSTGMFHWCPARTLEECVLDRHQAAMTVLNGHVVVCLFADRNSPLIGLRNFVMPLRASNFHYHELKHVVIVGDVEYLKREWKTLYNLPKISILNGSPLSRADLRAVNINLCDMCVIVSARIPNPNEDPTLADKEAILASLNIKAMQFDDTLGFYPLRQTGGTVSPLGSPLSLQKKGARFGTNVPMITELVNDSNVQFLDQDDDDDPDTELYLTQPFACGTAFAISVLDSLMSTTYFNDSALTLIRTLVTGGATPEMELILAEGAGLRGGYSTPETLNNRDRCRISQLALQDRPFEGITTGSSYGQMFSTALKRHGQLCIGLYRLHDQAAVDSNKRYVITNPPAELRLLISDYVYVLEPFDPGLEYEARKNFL
Chain of C. elegans Slo-1a (Q95V25 whole entry): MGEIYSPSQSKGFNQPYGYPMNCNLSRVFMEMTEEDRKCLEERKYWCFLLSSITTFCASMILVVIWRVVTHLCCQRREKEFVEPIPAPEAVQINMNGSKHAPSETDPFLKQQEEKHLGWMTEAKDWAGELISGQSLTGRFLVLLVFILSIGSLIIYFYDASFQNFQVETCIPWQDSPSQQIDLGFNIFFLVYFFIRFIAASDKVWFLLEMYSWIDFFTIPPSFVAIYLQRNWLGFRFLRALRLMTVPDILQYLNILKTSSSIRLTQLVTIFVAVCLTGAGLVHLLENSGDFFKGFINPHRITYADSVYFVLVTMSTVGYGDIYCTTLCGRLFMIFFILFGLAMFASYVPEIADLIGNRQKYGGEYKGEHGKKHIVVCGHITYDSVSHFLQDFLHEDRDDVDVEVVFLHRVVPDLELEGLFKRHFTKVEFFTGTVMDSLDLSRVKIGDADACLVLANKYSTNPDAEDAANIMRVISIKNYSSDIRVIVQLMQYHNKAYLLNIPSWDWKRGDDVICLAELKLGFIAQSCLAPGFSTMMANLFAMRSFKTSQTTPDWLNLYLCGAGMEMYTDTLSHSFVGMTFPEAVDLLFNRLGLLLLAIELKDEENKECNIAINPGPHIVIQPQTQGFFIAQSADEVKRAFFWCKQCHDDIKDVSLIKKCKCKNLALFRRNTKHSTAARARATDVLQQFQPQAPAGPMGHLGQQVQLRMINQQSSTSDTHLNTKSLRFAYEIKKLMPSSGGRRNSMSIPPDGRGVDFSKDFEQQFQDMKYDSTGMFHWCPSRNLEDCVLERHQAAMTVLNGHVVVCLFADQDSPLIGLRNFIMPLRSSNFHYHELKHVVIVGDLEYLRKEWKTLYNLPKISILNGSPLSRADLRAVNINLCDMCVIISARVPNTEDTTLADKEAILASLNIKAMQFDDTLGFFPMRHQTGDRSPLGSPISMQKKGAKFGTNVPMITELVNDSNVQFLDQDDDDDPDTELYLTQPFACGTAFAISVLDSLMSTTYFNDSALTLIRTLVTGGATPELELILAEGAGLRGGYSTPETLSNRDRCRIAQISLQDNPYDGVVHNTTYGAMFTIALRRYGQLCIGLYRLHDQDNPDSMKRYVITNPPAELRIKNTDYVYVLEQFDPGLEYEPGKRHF
Experimental for C. elegans Slo-1a: Generation of a Stable C. elegans CHO Cell Line
A CHO cell line was obtained from ATCC, code ATCC CRL-9096. […] The transfection solution included 300 μL OptiMEM (Life Technologies, Nr.: 31985), 2 μL (=6 μg) of plasmid DNA containing the C. elegans Slo 1a gene and 9 μL FugeneHD (Promega, Nr.: E2311), and was added to the cells prior to incubation for 48 hours at 37° C., 5% CO2. The transfection medium was exchanged for the selection medium which contains additional G418 (2 mg/ml, Invitrogen, Nr.: 10131) and the cells were seeded into 384 well plates (300 cells/well). After a few weeks, the remaining surviving cells were tested with a voltage sensitive dye (Membrane Potential Assay Kit, Molecular Devices Nr.: R8034) for K+ channel expression. Positive cell clones were purified by the limited dilution technique. For this the clone with the highest and most robust signal in the voltage sensitive dye assay was further subcloned (incubated) in 384 well plates (0.7 cells/well) in order to obtain clonal purity. This generated a final stable CHO cell line expressing the C. elegans Slo-1a.
Cells were cultured at 37° C. and 5% CO2 in MEMalpha with Gutamax I (Invitrogen, Nr.: 32571), supplemented with 10% (v/v) heat inactivated fetal bovine serum (Invitrogen, Nr.: 10500), G418 (1 mg/ml, Invitrogen, Nr.: 10131). Cells were detached using Accutase (Sigma, Nr.: A6964).
Membrane Potential Measurements
Laboratory compound testing was performed on 384-well microtiter plates (MTPs, Greiner, Nr.: 781092). 8000 cells/well were plated onto 384-well MTPs and cultured for 20 to 24 hours at 37° C. and 5% CO2. After removal of the cell culture medium, the cells were washed once with tyrode (150 mM NaCl, 0.3 mM KCl, 2 mM CaCl2, 1 mM MgCl2, 0.8 mM NaH2PO4, 5 mM Glucose, 28 mM Hepes, pH 7.4) and then loaded with the voltage sensitive dye of the Membrane Potential Assay Kit diluted in tyrode for 1 h at room temperature.
After starting the measurement of fluorescence using a FLIPR Tetra (Molecular Devices, Exc. 510-545 nm, Emm. 565-625 nm), test compounds were added followed by the addition of KCl tyrode (final assay concentration: 70 mM KCl, 2 mM CaCl2, 1 mM MgCl2, 0.8 mM NaH2PO4, 5 mM Glucose, 28 mM Hepes, pH 7.4, including the voltage sensitive dye). The measurement was completed after 7 minutes.
The data were evaluated by using the ActivityBase XLfit software (IDBS) for curve fitting and calculation of the half-maximal effective concentration (EC50) and are reported as negative decadic logarithm (pE50).

The term EC50 denotes the concentration at which the effect is half-maximal. For the compound `COc1cnc(-c2cc(F)cc(F)c2F)c2ncc(C(=O)N[C@H]3CCOc4ccccc43)c(N3CCOCC3)c12` [Example T1-9, N-[(4S)-3,4-dihydro-2H-1-benzopyran-4-yl]-5-methoxy-4-(morpholin-4-yl)-8-(2,3,5-trifluorophenyl)-1,7-naphthyridine-3-carboxamide], the EC50 was 3.16 to 31.6 nM on C. elegans Slo-1a, below 0.1 µg/mL with Dirofilaria immitis and 31.6 to 316 nM at D. immitis Slo-1. Also, in test [1], the inhibition at 1 µg/mL is above 80%. The inhibition at 10 µg/mL in test [1] was above 80%.
Take `CN(C)c1c(C(=O)N[C@H]2CCOc3ccccc32)cnc2c(-c3cccc(Cl)c3Cl)c(Cl)cnc12` [Example T3-8, 7-chloro-8-(2,3-dichlorophenyl)-N-[(4S)-3,4-dihydro-2H-1-benzopyran-4-yl]-4-(dimethylamino)-1,5-naphthyridine-3-carboxamide]: the inhibition at 1 µg/mL in test [1] is above 80%. Also, in test [1], the inhibition at 10 µg/mL was above 80%. In addition, the EC50 in the test with Dirofilaria immitis was below 0.1 µg/mL; in test [2] it was below 0.1 µg/mL; on D. immitis Slo-1, 3.16 to 31.6 nM.
As to `COc1cnc(-c2cccc(Cl)c2Cl)c2ncc(C(=O)N[C@H]3CCOc4ccccc43)c(N(C)C)c12` [Example T1-11, 8-(2,3-dichlorophenyl)-N-[(4S)-3,4-dihydro-2H-1-benzopyran-4-yl]-4-(dimethylamino)-5-methoxy-1,7-naphthyridine-3-carboxamide], the EC50 is 3.16 to 31.6 nM on C. elegans Slo-1a, below 0.1 µg/mL with Dirofilaria immitis, below 0.1 µg/mL in test [2] and 31.6 to 316 nM on D. immitis Slo-1. In addition, the inhibition at 1 µg/mL in test [1] was above 80%. In addition, the inhibition at 10 µg/mL in test [1] was above 80%.
With `COc1cnc2c(N(C)C)c(C(=O)N[C@H]3CCOc4ccccc43)cnc2c1-c1cc(Cl)cc(Cl)c1` [Example T3-10, 8-(3,5-dichlorophenyl)-N-[(4S)-3,4-dihydro-2H-1-benzopyran-4-yl]-4-(dimethylamino)-7-methoxy-1,5-naphthyridine-3-carboxamide], the inhibition at 1 µg/mL in test [1] is above 80%. For the same compound, in test [1], the inhibition at 10 µg/mL is above 80%. In addition, the EC50 is below 0.1 µg/mL in the test on Dirofilaria immitis, below 0.1 µg/mL in test [2] and 3.16 to 31.6 nM on D. immitis Slo-1.
As for `COc1ncc(-c2cccc(Cl)c2Cl)c2ncc(C(=O)N[C@H]3CCOc4ccccc43)c(N3CCOCC3)c12` [Example T2-11, 8-(2,3-dichlorophenyl)-N-[(4S)-3,4-dihydro-2H-1-benzopyran-4-yl]-5-methoxy-4-(morpholin-4-yl)-1,6-naphthyridine-3-carboxamide], the EC50 at C. elegans Slo-1a was below 3.16 nM; with Dirofilaria immitis, below 0.1 µg/mL; in test [2], below 0.1 µg/mL; on D. immitis Slo-1 it was 31.6 to 316 nM. Further, the inhibition at 1 µg/mL in test [1] is above 80%. In addition, the inhibition at 10 µg/mL in test [1] was above 80%.
For the compound `O=C(N[C@H]1CCOc2ccccc21)c1cnc2c(-c3cc(F)cc(F)c3F)ncc(F)c2c1N1CCOCC1` [Example T1-8, N-[(4S)-3,4-dihydro-2H-1-benzopyran-4-yl]-5-fluoro-4-(morpholin-4-yl)-8-(2,3,5-trifluorophenyl)-1,7-naphthyridine-3-carboxamide], the inhibition at 1 µg/mL in test [1] is above 80%. Besides, in test [1], the inhibition at 10 µg/mL is above 80%. Moreover, the EC50 with Dirofilaria immitis is below 0.1 µg/mL; in test [2] it was below 0.1 µg/mL; on D. immitis Slo-1, 31.6 to 316 nM.
As to `COc1cnc(-c2cc(F)cc(F)c2F)c2ncc(C(=O)N[C@H]3CCOc4ccccc43)c(N(C)C)c12` [Example T1-13, N-[(4S)-3,4-dihydro-2H-1-benzopyran-4-yl]-4-(dimethylamino)-5-methoxy-8-(2,3,5-trifluorophenyl)-1,7-naphthyridine-3-carboxamide], the inhibition at 1 µg/mL in test [1] was above 80%. The inhibition at 10 µg/mL in test [1] was above 80%. For the same compound, the EC50 was below 0.1 µg/mL in the test on Dirofilaria immitis, below 0.1 µg/mL in test [2] and 31.6 to 316 nM at D. immitis Slo-1.
`COc1c(C(=O)N[C@H]2CCOc3ccccc32)nnc2c(-c3ccc(F)c(F)c3)cccc12` [Example T5-8, 8-(3,4-Difluorophenyl)-N-[(4S)-3,4-dihydro-2H-chromen-4-yl]-4-methoxycinnoline-3-carboxamide]: the values for the EC50 (at C. elegans Slo-1a; in test [2]; at D. immitis Slo-1) were 3.16 to 31.6 nM, below 0.1 µg/mL and 31.6 to 316 nM, respectively.
On the same counts, the results for `CN(C)c1c(C(=O)N[C@H]2CCOc3ccccc32)nnc2c(-c3ccc(F)c(F)c3)cccc12` [Example T5-4, 8-(3,4-Difluorophenyl)-N-[(4S)-3,4-dihydro-2H-chromen-4-yl]-4-(dimethylamino)cinnoline-3-carboxamide] are 31.6 to 316 nM, below 0.1 µg/mL and 31.6 to 316 nM.
Regarding `COc1cnc2c(N(C)C)c(C(=O)N[C@H]3CCOc4ccccc43)cnc2c1-c1cccc(Cl)c1Cl` [Example T3-12, 8-(2,3-dichlorophenyl)-N-[(4S)-3,4-dihydro-2H-1-benzopyran-4-yl]-4-(dimethylamino)-7-methoxy-1,5-naphthyridine-3-carboxamide], the inhibition at 1 µg/mL in test [1] is above 80%. The inhibition at 10 µg/mL in test [1] is above 80%. Moreover, the figures for the EC50 (in the test on Dirofilaria immitis; in test [2]; on D. immitis Slo-1) were below 0.1 µg/mL, below 0.1 µg/mL and 3.16 to 31.6 nM, respectively.
Turning to `COc1ncc2c(N(C)C)c(C(=O)N[C@H]3CCOc4ccccc43)cnc2c1-c1cc(Cl)cc(Cl)c1` [Example T2-8, 8-(3,5-dichlorophenyl)-N-[(4S)-3,4-dihydro-2H-1-benzopyran-4-yl]-4-(dimethylamino)-7-methoxy-1,6-naphthyridine-3-carboxamide], the inhibition at 1 µg/mL in test [1] was above 80%. For the same compound, in test [1], the inhibition at 10 µg/mL is above 80%. In addition, the results for the EC50 (in the test with Dirofilaria immitis; in test [2]; at D. immitis Slo-1) were below 0.1 µg/mL, below 0.1 µg/mL and 3.16 to 31.6 nM, respectively.
`O=C(N[C@H]1CCOc2ccccc21)c1cnc2c(-c3cccc(Cl)c3Cl)nccc2c1` [Example T1-15, 8-(2,3-dichlorophenyl)-N-[(4S)-3,4-dihydro-2H-chromen-4-yl]-1,7-naphthyridine-3-carboxamide] yielded an EC50 at C. elegans Slo-1a of 31.6 to 316 nM.
In the case of `O=C(N[C@H]1CCOc2ccccc21)c1cnc2c(-c3cccc(Cl)c3Cl)c(Cl)cnc2c1N1CCOCC1` [Example T3-9, 7-chloro-8-(2,3-dichlorophenyl)-N-[(4S)-3,4-dihydro-2H-1-benzopyran-4-yl]-4-(morpholin-4-yl)-1,5-naphthyridine-3-carboxamide], the inhibition at 1 µg/mL in test [1] was above 80%. Further, the inhibition at 10 µg/mL in test [1] is above 80%. For the same compound, the EC50 was below 0.1 µg/mL in the test on Dirofilaria immitis, below 0.1 µg/mL in test [2] and 3.16 to 31.6 nM at D. immitis Slo-1.
As for `COc1ncc(-c2cc(Cl)cc(Cl)c2)c2ncc(C(=O)N[C@H]3CCOc4ccccc43)c(N3CCOCC3)c12` [Example T2-10, 8-(3,5-dichlorophenyl)-N-[(4S)-3,4-dihydro-2H-1-benzopyran-4-yl]-5-methoxy-4-(morpholin-4-yl)-1,6-naphthyridine-3-carboxamide], in test [1], the inhibition at 1 µg/mL was above 80%. In test [1], the inhibition at 10 µg/mL is above 80%. Further, the EC50 in the test with Dirofilaria immitis is below 0.1 µg/mL; in test [2], below 0.1 µg/mL; on D. immitis Slo-1, 31.6 to 316 nM.
For `COc1cnc2c(N3CCOCC3)c(C(=O)N[C@H]3CCOc4ccccc43)cnc2c1-c1cccc(Cl)c1Cl` [Example T3-14, 8-(2,3-dichlorophenyl)-N-[(4S)-3,4-dihydro-2H-1-benzopyran-4-yl]-7-methoxy-4-(morpholin-4-yl)-1,5-naphthyridine-3-carboxamide], the inhibition at 1 µg/mL in test [1] is above 80%. For the same compound, in test [1], the inhibition at 10 µg/mL is above 80%. The EC50 with Dirofilaria immitis is below 0.1 µg/mL; in test [2] it was below 0.1 µg/mL; on D. immitis Slo-1, 3.16 to 31.6 nM.
In the case of `CN(C)c1c(C(=O)N[C@H]2CCOc3ccccc32)cnc2c(-c3cccc(Cl)c3Cl)cncc12` [Example T2-2, 8-(2,3-Dichlorophenyl)-N-[(4S)-3,4-dihydro-2H-chromen-4-yl]-4-(dimethylamino)-1,6-naphthyridine-3-carboxamide], the figures for the 50% effective concentration (EC50) (on C. elegans Slo-1a; in test [2]) were 3.16 to 31.6 nM and below 0.1 µg/mL, respectively. Moreover, in test [1], the inhibition at 10 µg/mL is above 80%.
Consider `O=C(N[C@H]1CCOc2ccccc21)c1cnc2c(-c3cccc(Cl)c3Cl)c(F)cnc2c1N1CCOCC1` [Example T3-18, 8-(2,3-dichlorophneyl)-N-[(4S)-3,4-dihydro-2H-1-benzopyran-4-yl]-7-fluoro-4-(morpholin-4-yl)-1,5-naphthyridine-3-carboxamide], for which the inhibition at 1 µg/mL in test [1] is above 80%. In addition, the inhibition at 10 µg/mL in test [1] was above 80%. Further, the EC50 is below 0.1 µg/mL in the test with Dirofilaria immitis, below 0.1 µg/mL in test [2] and 3.16 to 31.6 nM at D. immitis Slo-1.
With `COc1ncc2c(N3CCOCC3)c(C(=O)N[C@H]3CCOc4ccccc43)cnc2c1-c1cc(Cl)cc(Cl)c1` [Example T2-9, 8-(3,5-dichlorophenyl)-N-[(4S)-3,4-dihydro-2H-1-benzopyran-4-yl]-7-methoxy-4-(morpholin-4-yl)-1,6-naphthyridine-3-carboxamide], the inhibition at 1 µg/mL in test [1] was above 80%. In test [1], the inhibition at 10 µg/mL is above 80%. For the same compound, the figures for the EC50 (with Dirofilaria immitis; in test [2]; on D. immitis Slo-1) were below 0.1 µg/mL, below 0.1 µg/mL and 3.16 to 31.6 nM, respectively.

The values above are taken from patent US11485733B2, “Azaquinoline derivatives” (BAYER ANIMAL HEALTH GMBH, priority 2017, dated 2022).
